Test results: patent US6761896B1, “Skin cosmetic care system and method” (Unilever Home & Personal Care USA, division of Conopco, Inc., priority 1998, dated 2004)
Where “and” joins values, the source holds several entries; their conditions need not be identical. Identical values can stand only once.

How the values were obtained:
Type in all cases: cell-based
MelanoDerm MEL-300 = test: Pigmentation in MelanoDerm Living Skin Equivalent (blue colour image analysis); conditions: for Pigmentation Reduction Magnet % South Pole (B): day 14, South Pole magnet; for Pigmentation Reduction Magnet % South Pole (B) / Pigmentation Reduction % No Magnet (A): individual tissues; for Pigmentation Reduction % No Magnet (A): day 14, no magnet, relative to untreated control; for effect of South pole magnetism on skin depigmenting action: Kojic acid 500, Yohimbine 25, Ascorbic acid 285 micro-molar, magnet vs no magnet, p<0.05
Experimental: Kojic acid, Vitamin C, and Yohimbine were examined for their ability to reduce pigmentation in the MelanoDerm Living Skin Equivalent in the presence and absence of South Pole magnetism. After 14 days of incubation, during which one series of tissues was exposed to South Pole magnetism and an equivalent duplicate series was not, the melanin color formed in each tissue was estimated using primary color image analysis.
MelanoDerm™ MEL-300, a 3-dimensional epidermal model containing functioning melanoctyes produced by MatTek Corporation, Ashland, Mass., was the tissue used for this experiment. Each MEL-300 kit has 24 tissue pieces.
Three depigmenting actives were added to the Melanoderm incubation medium at the following final concentrations,
Two (2) MEL-300 kits, each with 24 tissue pieces, were prepared with identical application of actives. Each active, Vitamin C, Kojic acid & Yohimbine, was applied to the incubation medium of 5 tissues at the concentrations specified above. 4 tissues were untreated. […] One Mel-300 kit prepared as above was placed on the 6 inch×4 inch South Pole surface of the Ferrimag magnet for incubation, and the identical second Mel-300 kit was incubated at the opposite side (top left vs bottom right) of the same incubator and additionally shielded from the magnet.
The tissues were incubated for 14 days in maintenance medium at 37 degrees centigrade and a constant atmosphere (5%CO2). The maintenance medium and actives were replenished 4 times weekly. At 7 days, 2 tissues were removed from each active and control group leaving 3 tissues in each group (2 in the untreated group) for day 14 evaluation.
At the day 14 completion of the experiment the tissue pieces of each Mel-300 incubation plate were photographed from above. Each tissue appeared as a small disc varying in brown color intensity. The photographs of two Mel-300 incubation plates (one incubated on the magnet and one without magnetism) were scanned into a Pentium II computer and the color primary color content of each disc was measured using a color analysis macro within an Optimas image quantification software package. The blue color content was used as an index of melanin pigment (preliminary experiments confirmed that the principle primary color of melanin is blue using this image analysis system—this was established by comparing brown freckles and age spots with surrounding non-pigmented skin in color photographs of Caucasian human skin). The blue color intensity scale is 0-255 where 0 is saturation with blue color and 255 is total absence of blue color. The actual blue scale reading of each tissue sample was converted to a % blue value by computing it's proportion of the full range of 0to 255.

human sebocytes = test: Lipid production by sebocytes in vitro (14C-acetate incorporation); conditions: for % Reduction: vs control of same plate
Experimental: This example measured the effect of various actives in combination with magnets on lipid production by sebocytes in vitro.
Secondary cultures of human sebocytes obtained from an adult […] were grown in the inner 24 wells of 48-well tissue culture plates (Costar Corp.; Cambridge, Mass.) until confluent. Sebocyte growth medium consisted of Clonetics Keratinocyte Basal Medium (KBM) supplemented with 14 ug/ml bovine pituitary extract, 0.4 ug/ml hydrocortisone, 5 ug/ml insulin, 10 ng/ml epidermal growth factor, 1.2×10^−10 M cholera toxin, 100 units/ml penicillin, and 100 ug/ml streptomycin. All cultures were incubated at 37° C. in the presence of 7.5% CO2. Medium was changed three times per week.
On the first day of experimentation, the growth medium was removed and the sebocytes washed three times with sterile Dulbecco's Modified Eagle Medium (DMEM; phenol red free). Fresh DMEM was added to each sample (triplicates) with 5 microliter of test agent solubilized in ethanol (312.5 uM iso-tridecylsalicylate or 10 uM Retinyl Linoleate; 6 replicates for each sample). Controls consisted of addition of ethanol alone. Each magnet was sandwiched between 2 plates for 24 hours. For 2 of the sebocyte plates, the configuration was North magnet pointing up, for 2 other plates, the configuration was reversed (South magnet up), and one plate served as a control (no presence of magnets).
After 24 hours, addition of ^14C-acetate buffer (5 mM final concentration, 56 mCi/mmol specific activity) was performed. Sebocytes were then returned to the incubator for four hours after which each culture was rinsed three times with phosphate buffered saline to remove unbound label. Radioactive label remaining in the sebocytes was harvested and counted using a Beckman scintillation counter.

MelanoDerm tissue = MelanoDerm tissue viability by MTT; conditions: 0.5% in water, preliminary experiment
Experimental: Phytic acid was tested at a concentration of 0.5% in water.

IL1-a = IL1-a release by MelanoDerm Living Skin Equivalents (Elisa); set-up: IL1-a(i) / IL1-a(ii): unit not given here; conditions: 0.5% phytic acid; for IL1-a release % Untreated: 24 hr; for IL1-a(i): first determination; for IL1-a(i) / IL1-a(ii): individual tissues; for IL1-a Mean: mean of (i) and (ii); for IL1-a(ii): second determination 7 days later
Experimental: (§1) Phytic acid (0.5%) was examined for its effect on cytokine release by MelanoDerm Living Skin Equivalents in the presence and absence of South Pole magnetism. After 24 hours incubation, during which one set of tissues was exposed to South Pole magnetism and an equivalent duplicate series was not, the culture medium was assayed for IL1-a and PGE-2. In the absence of magnetism there was a significant increase in medium concentration of both IL1-a and PGE-2. These increases were suppressed in the presence of South pole magnetism. Living Skin Equivalent: MelanoDermTM MEL-300, a 3-dimensional epidermal model containing functioning melanoctyes produced by MatTek Corporation, Ashland, Mass., was the tissue used for this experiment. Fifty (50) microliters of phytic acid solution (0.5%) was applied to the stratum corneum surface of 4 MEL-300 tissues. Eight (8) untreated MEL-300 tisues served as controls. Half the tissues (i.e. 2 phytic acid and 4 untreated controls) were placed on the 6 inch×4 inch South Pole surface of the […] magnet for 24 hours incubation (37 degrees centigrade; 5% CO2). After the 24 hr incubation the tissues were removed from the incubation medium and assayed for MTT to confirm tissue viability. The incubation medium was assayed for content of cytokines IL1-a and PGE-2. The tissue samples were refrigerated and a second determination of cyotkines was made 7 days later. The cytokine assays were performed using commercially available 96 well Elisa kits.

PGE-2 = PGE-2 release by MelanoDerm Living Skin Equivalents (Elisa); set-up: PGE-2(i) / PGE-2 (ii): unit not given beside the values; conditions: 0.5% phytic acid; for PGE-2 release % Untreated: 24 hr; for PGE-2(i): first determination; for PGE-2(i) / PGE-2 (ii): individual tissues; for PGE-2 Mean: mean of (i) and (ii); for PGE-2 (ii): second determination 7 days later
Experimental: as §1

[1] = 10 uM Retinyl Linoleate, Plate A: No Magnet Presence
[2] = 10 uM Retinyl Linoleate, Plate B: North Magnet Up (Top Plate)
[3] = 10 uM Retinyl Linoleate, Plate C: North Magnet Up (Bottom Plate)
[4] = 10 uM Retinyl Linoleate, Plate D: South Magnet Up (Top Plate)
[5] = 10 uM Retinyl Linoleate, Plate E: South Magnet Up (Bottom Plate)
[6] = No Magnetism, increase over untreated
[7] = 312.5 uM TDS, Plate A: No Magnet Presence
[8] = 312.5 uM TDS, Plate B: North Magnet Up (Top Plate)
[9] = 312.5 uM TDS, Plate C: North Magnet Up (Bottom Plate)
[10] = 312.5 uM TDS, Plate D: South Magnet Up (Top Plate)
[11] = 312.5 uM TDS, Plate E: South Magnet Up (Bottom Plate)

O=C1O[C@H]([C@@H](O)CO)C(O)=C1O [Vitamine C, Ascorbic acid]
Mean A-B (Mean Difference) (MelanoDerm MEL-300; Ascorbic acid 285 micro-molar): −3.97 | Pigmentation Reduction Magnet % South Pole (B) (MelanoDerm MEL-300; Ascorbic acid 285 micro-molar): −6.18% and −6.34% and −4.55% | Pigmentation Reduction % No Magnet (A) (MelanoDerm MEL-300; Ascorbic acid 285 micro-molar): −4.21% and −2.65% and 1.7% | effect of South pole magnetism on skin depigmenting action (MelanoDerm MEL-300): enhances

CCCCC/C=C\C/C=C\CCCCCCCC(=O)OC/C=C(C)/C=C/C=C(C)/C=C/C1=C(C)CCCC1(C)C [Retinyl Linoleate]
DPMs (AVG) (human sebocytes; [1]): 4198.1 DPMs | % Reduction (human sebocytes; [1]): 3.9% | DPMs (AVG) (human sebocytes; [2]): 4123.0 DPMs | % Reduction (human sebocytes; [2]): 6.5% | DPMs (AVG) (human sebocytes; [3]): 3660.1 DPMs | % Reduction (human sebocytes; [3]): 1.8% | DPMs (AVG) (human sebocytes; [4]): 3619.4 DPMs | % Reduction (human sebocytes; [4]): −1.6% | DPMs (AVG) (human sebocytes; [5]): 3181.1 DPMs | % Reduction (human sebocytes; [5]): 5.6%

O=P(O)(O)O[C@H]1[C@H](OP(=O)(O)O)[C@@H](OP(=O)(O)O)[C@H](OP(=O)(O)O)[C@@H](OP(=O)(O)O)[C@H]1OP(=O)(O)O [Phytic acid]
toxicity to MelanoDerm tissue (tissue viability by MTT) (MelanoDerm tissue): non-toxic | IL1-a release % Untreated (IL1-a; + South Pole Magnetism, increase over untreated plus magnet): 16% | IL1-a release % Untreated (IL1-a; [6]): 99% | IL1-a(i) (IL1-a; South Pole magnet): 239.1 and 108.9 | IL1-a Mean (IL1-a; South Pole magnet): 151.2 +/− 64 | IL1-a(ii) (IL1-a; South Pole magnet): 158.2 and 98.4 | IL1-a(i) (IL1-a; no magnet): 285.3 and 222.9 | IL1-a Mean (IL1-a; no magnet): 209 +/− 61 | IL1-a(ii) (IL1-a; no magnet): 186.2 and 141.1 | PGE-2 release % Untreated (PGE-2; + South Pole Magnetism, change over untreated plus magnet): −2% | PGE-2 release % Untreated (PGE-2; [6]): 191% | PGE-2(i) (PGE-2; South Pole magnet): 2056 and 2387 | PGE-2 Mean (PGE-2; South Pole magnet): 2093 +/− 208 | PGE-2 (ii) (PGE-2; South Pole magnet): 1899 and 2030 | PGE-2(i) (PGE-2; no magnet): 5326 and 4673 | PGE-2 Mean (PGE-2; no magnet): 5136 +/− 421 | PGE-2 (ii) (PGE-2; no magnet): 5621 and 4923

O=c1cc(CO)occ1O [Kojic Acid, Kojic acid]
effect of South pole magnetism on skin depigmenting action (MelanoDerm MEL-300): enhances | Mean A-B (Mean Difference) (MelanoDerm MEL-300; Kojic acid 500 micro-molar): −2.06 | Pigmentation Reduction Magnet % South Pole (B) (MelanoDerm MEL-300; Kojic acid 500 micro-molar): −9.21% and −10.02% and 4.75% | Pigmentation Reduction % No Magnet (A) (MelanoDerm MEL-300; Kojic acid 500 micro-molar): −4.77% and −8.72% and −4.27%

iso-tridecylsalicylate [TDS]
DPMs (AVG) (human sebocytes; [7]): 2913.0 DPMs | % Reduction (human sebocytes; [7]): 36.3% | DPMs (AVG) (human sebocytes; [8]): 3367.8 DPMs | % Reduction (human sebocytes; [8]): 23.6% | DPMs (AVG) (human sebocytes; [9]): 3543.9 DPMs | % Reduction (human sebocytes; [9]): 4.9% | DPMs (AVG) (human sebocytes; [10]): 3040.0 DPMs | % Reduction (human sebocytes; [10]): 14.7% | DPMs (AVG) (human sebocytes; [11]): 2677.4 DPMs | % Reduction (human sebocytes; [11]): 20.5%

COC(=O)[C@@H]1[C@H]2C[C@H]3c4[nH]c5ccccc5c4CCN3C[C@@H]2CC[C@@H]1O [Yohimbine]
effect of South pole magnetism on skin depigmenting action (MelanoDerm MEL-300): enhances | Mean A-B (Mean Difference) (MelanoDerm MEL-300; Yohimbine 25 micro-molar): −3.27 | Pigmentation Reduction Magnet % South Pole (B) (MelanoDerm MEL-300; Yohimbine 25 micro-molar): −2.55% and −8.08% and −6.76% | Pigmentation Reduction % No Magnet (A) (MelanoDerm MEL-300; Yohimbine 25 micro-molar): 1.85% and −5.63% and −3.8%
